One series has as its target Wee1-like protein kinase (Homo sapiens, UniProt P30291). Kind of series: Inhibition of Wee1 (unknown origin) incubated for 60 mins by LanthaScreen Eu-Kinase binding assay. Background: Time-resolved FRET reads energy transfer from a long-lived donor to a nearby acceptor.
The test system of the next series is NCI-H1299. Briefly: Antiproliferative activity against human NCI-H1299 cells assessed as cell growth inhibition incubated for 3 days by CellTiter-Glo Luminescent assay. Conditions: NCI-H1299, 72 h. It counts as functional, cell-based.
The nature of series [1]: AUC (0-infinity) in rat at 5 mg/kg,IG measured upto 24 hrs by LC-MS/MS analysis. It counts as ADME, organism-based. More on the design: dose 5 mg/kg, time < 24 hrs, route ig. Conditions: in vivo, po.
A short description of series [2]: Half life in rat at 5 mg/kg,IG measured upto 24 hrs by LC-MS/MS analysis. It counts as ADME, organism-based. To be noted: in vivo, po.
The nature of series [3]: Tmax in rat at 5 mg/kg,IG measured upto 24 hrs by LC-MS/MS analysis. Type of series: ADME, organism-based. To be noted: in vivo, po.
Series [4] is described as follows: Cmax in rat at 5 mg/kg,IG measured upto 24 hrs by LC-MS/MS analysis. It counts as ADME, organism-based. More on the design: dose 5 mg/kg, time < 24 hrs, route ig. To be noted: in vivo, po.

The record followed here is ChEMBL document CHEMBL5223119, “Discovery of pyrrolo[2,3-d]pyrimidine-based molecules as a Wee1 inhibitor template” (Bioorg Med Chem Lett, 2022).

Wee1-like protein kinase, sequence (P30291 whole entry): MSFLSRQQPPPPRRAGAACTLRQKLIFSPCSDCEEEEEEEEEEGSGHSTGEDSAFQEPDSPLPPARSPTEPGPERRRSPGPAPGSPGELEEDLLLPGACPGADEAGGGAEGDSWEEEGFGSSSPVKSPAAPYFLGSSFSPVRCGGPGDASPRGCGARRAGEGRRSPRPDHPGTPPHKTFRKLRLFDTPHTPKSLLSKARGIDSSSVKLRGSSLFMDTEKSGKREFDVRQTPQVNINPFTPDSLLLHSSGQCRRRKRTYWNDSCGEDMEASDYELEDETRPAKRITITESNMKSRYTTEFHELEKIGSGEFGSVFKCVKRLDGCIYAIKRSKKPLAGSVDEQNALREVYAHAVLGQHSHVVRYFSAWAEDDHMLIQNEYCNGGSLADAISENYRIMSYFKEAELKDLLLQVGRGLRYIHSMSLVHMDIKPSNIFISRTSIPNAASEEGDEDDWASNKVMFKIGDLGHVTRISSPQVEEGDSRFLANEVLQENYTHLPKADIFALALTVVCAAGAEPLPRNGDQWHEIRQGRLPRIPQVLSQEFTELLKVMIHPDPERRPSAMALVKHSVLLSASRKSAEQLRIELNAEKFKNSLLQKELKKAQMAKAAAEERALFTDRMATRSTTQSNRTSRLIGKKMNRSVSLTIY

Turning to `CN1CCN(C2CCN(c3ccc(Nc4ncc5c(F)c(C6CC6)n(-c6cccc(C(C)(C)O)n6)c5n4)cc3F)CC2)CC1`, the IC50 at Wee1-like protein kinase came out at 10.6 nM; in the series with NCI-H1299 it was 623 nM. This molecule returned an AUC(0-inf) in series [1] of 4580 ng·h/mL. The half-life in series [2] is 33.4 h. Also, the Tmax in series [3] stood at 6.7 h. In addition, the Cmax in series [4] turned out to be 117 ng/mL.
As to `CN1CCC2(CC1)CCN(c1ccc(Nc3ncc4cc(C5CC5)n(-c5cccc(C(C)(C)O)n5)c4n3)cc1)CC2`, in the series with NCI-H1299, the 50% inhibitory concentration (IC50) turned out to be 199 nM. In series [1], this molecule registered an AUC(0-inf) of 4070 ng·h/mL. The molecule also had a half-life in series [2] of 19.2 h. Also, in series [3], the Tmax is 4.8 h. The molecule further registered a Cmax in series [4] of 163 ng/mL.
For `CCCc1c(F)c2cnc(Nc3ccc(N4CCOCC4)cc3)nc2n1-c1cccc(N=S(C)(C)=O)n1`, the IC50 worked out at 3.37 nM at Wee1-like protein kinase and 332 nM with NCI-H1299.
For `CN1CCN(c2ccc(Nc3ncc4c(F)c(C5CC5)n(-c5cccc(C(C)(C)O)n5)c4n3)cc2)CC1`, in that order: 38.2 nM and 288 nM.
`Cc1cc2cnc(Nc3ccc(N4CCN(C)CC4)cc3)nc2n1-c1cccc(N=S(C)(C)=O)n1`: the IC50 with NCI-H1299 turned out to be 59 nM.
Consider `CN1CCN(C2CCN(c3ccc(Nc4ncc5c(F)c(C6CC6)n(-c6cccc(C(C)(C)O)n6)c5n4)cc3)CC2)CC1`, for which the IC50 at Wee1-like protein kinase came to 0.86 nM; in the series on NCI-H1299, 211 nM. The same molecule returned an AUC(0-inf) in series [1] of 1750 ng·h/mL. This molecule also had a half-life in series [2] of 10.9 h. In addition, the Tmax in series [3] came out at 6 h. The molecule also returned a Cmax in series [4] of 83 ng/mL.
`CCCc1cc2cnc(Nc3ccc(N4CCN(C)CC4)cc3)nc2n1-c1cccc(C(C)(C)O)n1`: the IC50 in the series with NCI-H1299 was 126 nM.
As for `CCc1cc2cnc(Nc3ccc(N4CCN(C)CC4)cc3)nc2n1-c1cccc(C(C)(C)O)n1`, the IC50 on Wee1-like protein kinase is 0.1 nM.
Turning to `CC(C)c1cc2cnc(Nc3ccc(N4CCN(C)CC4)cc3)nc2n1-c1cccc(N=S(C)(C)=O)n1`, the IC50 with NCI-H1299 came out at 100 nM.
`CC(C)c1cc2cnc(Nc3ccc(N4CCN(C)CC4)cc3)nc2n1-c1cccc(C(C)(C)O)n1`: the figures for the IC50 on Wee1-like protein kinase and in the series with NCI-H1299 were 0.42 nM and 91 nM, respectively.
For `CN1CCN(C2CCN(c3ccc(Nc4ncc5cc(C6CC6)n(-c6cccc(N=S(C)(C)=O)n6)c5n4)cc3)CC2)CC1`, in that order: 2.54 nM and 156 nM.
`CCCc1cc2cnc(Nc3ccc(N4CCC(N5CCN(C)CC5)CC4)cc3)nc2n1-c1cccc(N=S(C)(C)=O)n1`: the IC50 with NCI-H1299 was 87 nM.
Consider `CN1CCN(C2CCN(c3ccc(Nc4ncc5cc(C6CC6)n(-c6cccc(C(C)(C)O)n6)c5n4)cc3)CC2)CC1`, for which the IC50 at Wee1-like protein kinase was determined as 1.33 nM; in the series on NCI-H1299, 105 nM.
`Cc1cc2cnc(Nc3ccc(N4CCN(C)CC4)cc3)nc2n1-c1cccc(C(C)(C)O)n1` displayed an AUC(0-inf) in series [1] of 710 ng·h/mL. In series [2], this molecule showed a half-life of 3.56 h. Also, the time to peak (Tmax) in series [3] stood at 1 h. This molecule registered a Cmax in series [4] of 125 ng/mL.
As to `CN1CCN(c2ccc(Nc3ncc4cc(C5CC5)n(-c5cccc(N=S(C)(C)=O)n5)c4n3)cc2F)CC1`, the IC50 in the series with NCI-H1299 stood at 42 nM.
For the molecule `CCc1cc2cnc(Nc3ccc(N4CCN(C)CC4)cc3)nc2n1-c1cccc(N=S(C)(C)=O)n1`, the IC50 with NCI-H1299 is 23 nM. In series [1], this molecule showed an AUC(0-inf) of 48 ng·h/mL. This molecule also had a half-life in series [2] of 2.24 h. The Tmax in series [3] turned out to be 2.67 h. Besides, in series [4], the concentration peaked (Cmax) at 8.1 ng/mL.
The like results for `CCCc1c(F)c2cnc(Nc3ccc(N4CCN(C)CC4)cc3)nc2n1-c1cccc(N=S(C)(C)=O)n1` were, in that order, 43 nM, 314 ng·h/mL, 4.58 h, 1.67 h and 36.8 ng/mL.
Turning to `COCc1cc2cnc(Nc3ccc(N4CCN(C)CC4)cc3)nc2n1-c1cccc(N=S(C)(C)=O)n1`, the IC50 stood at 2.03 nM at Wee1-like protein kinase and 101 nM in the series with NCI-H1299.
The like results for `CCCc1c(F)c2cnc(Nc3ccc(N4CCN(C)CC4)cc3)nc2n1-c1cccc(C(C)(C)O)n1` were, in that order, 9.3 nM and 1720 nM.
Consider `CN1CCN(c2ccc(Nc3ncc4cc(C5CC5)n(-c5cccc(N=S(C)(C)=O)n5)c4n3)cc2)CC1`, for which the values for the IC50 on Wee1-like protein kinase and with NCI-H1299 were 0.92 nM and 42 nM, respectively. In series [1], this molecule registered an AUC(0-inf) of 286 ng·h/mL. This molecule also gave a half-life in series [2] of 8.26 h. For the same molecule, in series [3], the time to peak (Tmax) was 0.92 h. In series [4], the Cmax came out at 76.9 ng/mL.
As to `CCCc1cc2cnc(Nc3ccc(N4CCN(C)CC4)cc3)nc2n1-c1cccc(N=S(C)(C)=O)n1`, the IC50 with NCI-H1299 was 33 nM. This molecule also displayed an AUC(0-inf) in series [1] of 188 ng·h/mL. Further, the half-life in series [2] is 3.24 h. Also, the Tmax in series [3] was found to be 2.33 h. The molecule also displayed a Cmax in series [4] of 29.4 ng/mL.
For the molecule `CCCc1cc2cnc(Nc3ccc(N4CCOCC4)cc3)nc2n1-c1cccc(N=S(C)(C)=O)n1`, the results for the IC50 on Wee1-like protein kinase and in the series with NCI-H1299 were 8.3 nM and 451 nM, respectively.
For the molecule `C=CCn1c(=O)c2cnc(Nc3ccc(N4CCN(C)CC4)cc3)nc2n1-c1cccc(C(C)(C)O)n1` [ADAVOSERTIB], in the series with NCI-H1299, the IC50 was found to be 104 nM.

By IC50 is commonly meant the point on the concentration scale where inhibition reaches its midpoint. By AUC(0-inf) is commonly meant total exposure, with the tail of the curve extrapolated. The low end stands for low exposure, the high end for high exposure. The term half-life denotes the time needed for the level to fall by half in the phase considered. High values mean slow loss, low ones fast loss. For orientation: Tmax means the time at which the peak concentration occurs. For orientation: Cmax means the maximum level reached in the sampled fluid or tissue.
